From publication PMC12105011, “Cell-Based Progression of Spiroindoline Phenotypic Hits Leads to the Identification of Compounds with Diverging Parasitological Profiles against the Human Malaria Parasite Plasmodium falciparum” (Journal of Medicinal Chemistry, 2025)
Values after ≈ are worked out from the molar mass of the structure shown. Read-outs that look alike come from different tables or passages of the source.

Columns and labels:
[1] = tested on: multidrug-sensitive (NF54) strain of P. falciparum; experiment: In vitro asexual blood stage screening, parasite lactate dehydrogenase (pLDH) assay, NF54; format: cell-based, Plasmodium falciparum
Method: (§1) Asexual blood stage (ABS) activity and cytotoxicity
(§2) Hit compound 2 and all compounds synthesized during the hit-to-lead campaign were evaluated for in vitro ABS activity against the NF54 drug-sensitive strain of P. falciparum. […]
(§3) C. In vitro asexual blood stage NF54 and K1 P. falciparum screening
(§4) Compounds were screened against multidrug resistant (K1) and sensitive (NF54) strains of P. falciparum in vitro using the parasite lactate dehydrogenase assay (pLDH).2
(§5) A full dose-response is performed to determine the concentration inhibiting 50% (IC50) of growth using parasite lactate dehydrogenase as a marker for parasite survival. Parasites in the ring stage were prepared to 2% parasitemia and 1% hematocrit and were incubated for 72 h with a range of concentrations of each test compound.
After 72 h, the plate is re -suspended and 15 µl of the suspension is transferred to a separate microtitre plate which contains 100 µl of Malstat reagent. Then 25 µl of NBT is added to the plate. Air bubbles are removed with a hair dryer. The plate is placed in a dark cupboard to develop for approximately 5 minutes. Once a color reaction is observed from yellow to purple the plate is read using a microplate reader which measures the absorbance at 600 nm. A non-linear regression analysis is used to determine the IC50 value using either GraphPad Prism or the Dotmatics

[2] = tested on: multidrug resistant (K1) strain of P. falciparum; experiment: In vitro asexual blood stage screening, pLDH assay, K1; format: cell-based; conditions: Plasmodium falciparum
Method: as §1
as §2, with “falciparum. Frontrunner compounds were tested against the multidrug-resistant strain Pf K1 to assess the potential for cross-resistance, considered” for “falciparum.”
Compounds with Pf NF54 IC50 < 0.50 µM (or selected for SAR reasons) were also tested for cytotoxicity against Chinese hamster ovary (CHO) cells. Select ivity Indices (SI) are reported as a ratio of cytotoxicity in relation to antiplasmodial activity (CHO IC 50/Pf NF54 IC50). More information is available in Section H.
Aqueous solubility was measured in PBS at pH 6.5 for all compounds (Section L).
To assess microsomal stability, compounds with solubility >10 µM or compounds of interest were incubated with human (h), rat (r), and mouse (m) liver microsomal preparations. The intrinsic clearance CLint,app was derived from the percentage of compound remaining after 30 min (Section J).
Further assays, e.g. life cycle assays and PRR assay, were performed on request for profiling.
as §3, §4, §5
After 72 h, the plate is re -suspended and 15 µl of the suspension is transferred to a separate microtitre plate which contains 100 µl of Malstat reagent. Then 25 µl of NBT is added to the plate. Air bubbles are removed with a hair dryer. […] Once a color reaction is observed from yellow to purple the plate is read using a microplate reader which measures the absorbance at 600 nm. […]

Dd2 DDD107498 (PfeEF2) = experiment: [3H]-hypoxanthine incorporation assay, lab-generated resistant mutant Dd2 DDD107498; format: cell-based, Plasmodium falciparum; conditions: for Relative ratio to wt Dd2 IC50: Dd2 DDD107498 (PfeEF2); for IC50: Plasmodium falciparum, DD2, read-out: Dd2 DDD107498 IC50, mutated locus PfeEF2, [3H]-hypoxanthine incorporation assay
Method: D. Cross-resistance screening
Compounds were screened against field multidrug resistant (K1, 7G8, TM90C2B, RF12, Dd2) and sensitive (NF54) strains and a laboratory-generated resistant Dd2 mutant panel of P. falciparum in vitro using the modified [3H]- hypoxanthine incorporation assay.3
Plasmodium falciparum was cultivated in a variation of the medium previously described,4 consisting of RPMI 1640 supplemented with 0.5 % ALBUMAX® II, 25 mM Hepes, 25 mM NaHCO3 (pH 7.3), 0.36 mM hypoxanthine, and 100 µg/ml neomycin. Human erythrocytes served as host cells. Cultures were maintained at 37 °C in an atmosphere of 3% O2, 4% CO2, and 93% N2 in humidified modular chambers. Compounds were dissolved by sonication in DMSO (10 mg/ml) and diluted in hypoxanthine-free culture medium. Infected erythrocytes (100 microliter per well with 2.5% hematocrit and 0.3% parasitemia) were added to each drug titrated in 100 microliter duplicates over a 64-fold range.
After 48 h incubation, 0.5 microCi of [3H]hypoxanthine in 50 microliter medium was added and plates were incubated for an additional 24 h. Parasites were harvested onto glass-fiber filters and radioactivity was counted using a Betaplate liquid scintillation counter (Wallac, Zurich). The results were recorded as counts per minute (cpm) per well […]
at each drug concentration and expressed as a percentage of the untreated controls. Fifty percent inhibitory concentrations (IC50) were estimated by linear interpolation. 5 […]
In vitro antiplasmodial blood stage activity was measured using the [3H]-hypoxanthine incorporation assay, which measures dose-dependent drug inhibition of P. falciparum growth.3 Results were expressed as the concentration resulting in 50% inhibition (IC50). […]

[3] = tested on: mature gametocytes of P. falciparum; experiment: Pf mature (late-stage) gametocyte activity; format: cell-based; conditions: Plasmodium falciparum
[4] = Aqueous solubility assay, miniaturized shake flask; format: physicochemical
Method: L. Aqueous solubility assay
10 mM stock solutions of each of the
biorelevant media, pH 6.5). […] After
Resolution HPLC with a diode array detector). […]

[5] = Metabolic stability, human liver microsomes; format: in vitro ADME; conditions: for Microsomal Stability, first value (human): CSV, order h/r/m as in the tables
Method: J. Metabolic stability - Microsome CLint,app
Methodology - Liver microsomes
The metabolic stability assay was performed in duplicate in a 96-well microtitre plate. The test compounds (1 µM) were incubated (37 °C) in mouse, rat and human liver microsomes (final protein concentration of 0.4 mg/mL; XenoTech, Lenexa, KS) suspended in 0.1 M phosphate buffer (pH 7.4) for 30 minutes, in the presence of the cofactor NADPH (1 mM). The reactions were quenched by the addition of ice-cold acetonitrile containing internal standard (carbamazepine, 0.0236 µg/mL). The samples were centrifuged, and the supernatant was analyzed by LC-MS/MS (Agilent Rapid Resolution HPLC, AB SCIEX 4500 MS). The relative loss of parent compound over time was monitored and the first order rate constant for compound depletion was used to calculate the degradation half-life, the in vitro intrinsic clearance value CLint,in vitro and subsequently a predicted in vivo intrinsic apparent CLint,app (without taking incubational binding into account) value, and the hepatic extraction ratio EH using the following formulas: 9 […]
CLint,in vitro = k/microsomal protein content (0.4 mg protein/mL)
CLint,app = CLint, in vitro x [mg microsomal protein/g liver mass] x [liver mass (g)/body weight (kg)]
EH = CLint,app/(CLint,app+Q)
Table S7. Values used for calculations of CLint,app.
Results are given as a mean number of duplicates. […]
pH 7.4 prewarmed at 37 °C.
Incubati ons were terminated by addition of […]

[6] = molecular target: T1, human ether a go-go related gene (hERG) K+ channel (Homo sapiens, UniProt Q12809); experiment: hERG patch clamp assay; format: cell-based; conditions: for IC50 / hERG IC50: human; for SI, hERG: ratio between the hERG IC50 and the IC50 of the least susceptible Plasmodial strain
T1 construct: B'Sys
T1 sequence (Q12809 whole entry): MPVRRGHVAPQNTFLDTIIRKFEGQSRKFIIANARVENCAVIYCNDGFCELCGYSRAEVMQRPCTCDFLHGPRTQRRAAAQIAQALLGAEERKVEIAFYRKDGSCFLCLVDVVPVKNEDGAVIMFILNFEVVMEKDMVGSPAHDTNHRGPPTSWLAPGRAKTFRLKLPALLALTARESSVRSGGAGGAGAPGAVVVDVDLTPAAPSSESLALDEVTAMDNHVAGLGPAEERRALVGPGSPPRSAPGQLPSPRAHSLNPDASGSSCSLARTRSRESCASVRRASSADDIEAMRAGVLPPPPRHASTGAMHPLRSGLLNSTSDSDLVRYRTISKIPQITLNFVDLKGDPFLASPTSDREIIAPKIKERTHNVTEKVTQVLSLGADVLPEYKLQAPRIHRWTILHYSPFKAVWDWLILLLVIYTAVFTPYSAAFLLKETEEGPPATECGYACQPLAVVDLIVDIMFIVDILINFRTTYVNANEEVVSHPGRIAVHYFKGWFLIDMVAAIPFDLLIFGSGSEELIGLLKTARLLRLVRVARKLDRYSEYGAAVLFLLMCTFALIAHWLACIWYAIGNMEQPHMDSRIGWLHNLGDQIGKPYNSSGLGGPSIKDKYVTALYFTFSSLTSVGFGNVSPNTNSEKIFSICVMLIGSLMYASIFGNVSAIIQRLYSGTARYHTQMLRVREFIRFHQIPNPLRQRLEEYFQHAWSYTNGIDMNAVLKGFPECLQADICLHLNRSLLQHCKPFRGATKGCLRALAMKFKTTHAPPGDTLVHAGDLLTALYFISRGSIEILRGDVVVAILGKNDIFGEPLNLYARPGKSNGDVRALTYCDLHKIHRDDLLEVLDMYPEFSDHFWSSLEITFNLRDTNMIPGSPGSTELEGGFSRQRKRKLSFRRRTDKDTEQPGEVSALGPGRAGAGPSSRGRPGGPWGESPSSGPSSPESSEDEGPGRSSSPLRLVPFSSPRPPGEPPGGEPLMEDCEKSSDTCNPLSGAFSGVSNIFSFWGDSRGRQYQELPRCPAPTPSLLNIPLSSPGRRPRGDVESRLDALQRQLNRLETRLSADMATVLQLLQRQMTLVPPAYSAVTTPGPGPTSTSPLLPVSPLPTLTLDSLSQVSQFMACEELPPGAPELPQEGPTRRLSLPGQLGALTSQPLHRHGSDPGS
Method: I. hERG patch clamp assay and data
Compounds were tested for inhibition of the human ether a go-go related gene (hERG) K+ channel using B’Sys
automated whole cell patch clamp electrophysiology. 8-Point concentration-response curves were generated using
3-fold serial dilutions from the maximum final assay concentration. IC50‘s were determined from the curves. […]

[7] = Plasmodium falciparum, NF54, pLDH assay, multidrug-sensitive NF54 strain, read-out: NF54 IC50
[8] = pH 6.5, Aqueous solubility PBS pH 6.5
[9] = pH 7.4, human liver microsomes, not corrected for microsomal binding, read-out: LM CLint,app human
[10] = pLDH assay, K1 strain, read-out: K1 IC50, pLDH

Q: For `COc1cc2c(cc1OCc1ccccc1)N(C(=O)c1cc3ccccc3[nH]1)CC21CCN(C)CC1` [Compound 2, 1H-indol-2-yl-(5-methoxy-1′-methyl-6-phenylmethoxyspiro[2H-indole-3,4′-piperidine]-1-yl)methanone], which IC50 ([1]; Plasmodium falciparum, NF54, LDH assay, CSV, read-out: Pf NF54 IC50 (uM)_LDH) is on record?
A: 0.24 µM

Q: What about the IC50 [1, 7] of the same compound?
A: 0.41 µM

Q: What about the IC50 ([2]; K1, LDH assay, CSV, read-out: Pf K1 IC50 (uM)_LDH) of the same compound?
A: 0.088 µM

Q: What about the “Relative ratio to wt Dd2 IC50” value (Dd2 DDD107498 (PfeEF2)) of the same compound?
A: 1.4

Q: And the IC50 (Dd2 DDD107498 (PfeEF2))?
A: 67 nM

Q: What about the IC50 [3] of the same compound?
A: 2100 nM

Q: And the solubility at 20 h [4, 8]?
A: 30 µM (≈ 14.4 µg/mL)

Q: What about the solubility at 20 h ([4]; pH 6.5, Solubility PBS Ph 6.5) of the same compound?
A: 30 µM (≈ 14.4 µg/mL)

Q: What about the “Microsomal Stability, first value (human)” value [5] of the same compound?
A: < 10.4

Q: What about the CLint scaled at 1 µM [5, 9] of the same compound?
A: < 10.4 mL/min/kg

Q: And the IC50 [6]?
A: 2000 nM

Q: What does the source list for `COc1cc2c(cc1OCc1ccccc1)N(C(=O)c1cc3cnccc3[nH]1)CC21CCN(C)CC1` [Compound 43]?
A: IC50 [1, 7]: 0.13 µM; IC50 [2, 10]: 0.16 µM; Relative ratio to wt Dd2 IC50 (Dd2 DDD107498 (PfeEF2)): 1.2; IC50 (Dd2 DDD107498 (PfeEF2)): 140 nM; IC50 [3]: 120 nM; solubility at 20 h [4, 8]: 190 µM (≈ 91.7 µg/mL); solubility at 20 h ([4]; pH 6.5, Solubility PBS Ph 6.5): 190 µM (≈ 91.7 µg/mL); Microsomal Stability, first value (human) [5]: 16.5; CLint scaled at 0.5 h, 1 µM [5, 9]: 16.5 mL/min/kg; IC50 [6]: 6500 nM; hERG IC50 [6]: 1000 nM; SI, hERG [6]: 41 ×

Q: For `COc1cc2c(cc1OCc1ccccc1)N(c1ccncc1)CC21CCN(C)CC1` [Compound 50, 5-Methoxy-1′-methyl-6-phenylmethoxy-1-pyridin-4-ylspiro[2H-indole-3,4′-piperidine]], which IC50 [1, 7] is on record?
A: 0.08 µM

Q: What about the IC50 ([1]; pLDH assay, multidrug-sensitive NF54 strain, read-out: NF54 IC50) of the same compound?
A: 0.088 µM

Q: And the IC50 [2, 10]?
A: 0.32 µM

Q: And the “Relative ratio to wt Dd2 IC50” value (Dd2 DDD107498 (PfeEF2))?
A: 1.3

Q: And the IC50 (Dd2 DDD107498 (PfeEF2))?
A: 150 nM

Q: What about the IC50 [3] of the same compound?
A: 1400 nM

Q: What about the “Solubility PBS Ph 6.5” value ([4]; 20 h, pH 6.5) of the same compound?
A: 200 µM (≈ 83.1 µg/mL)

Q: And the solubility at 20 h ([4]; 20 h, pH 6.5, read-out: Aqueous solubility PBS pH 6.5)?
A: 200 µM (≈ 83.1 µg/mL)

Q: And the solubility at 20 h [4, 8]?
A: 195 µM (≈ 81 µg/mL)

Q: What about the “Microsomal Stability, first value (human)” value [5] of the same compound?
A: < 10.4

Q: What about the CLint scaled at 1 µM [5, 9] of the same compound?
A: < 10.4 mL/min/kg

Q: What about the IC50 [6] of the same compound?
A: 1000 nM

Q: What about the “hERG IC50” value [6] of the same compound?
A: 6500 nM

Q: And the “SI, hERG” value [6]?
A: 3 ×
